Source: PubChem BioAssay AID1671316

Target: Tyrosine-protein kinase Lck (Homo sapiens) (UniProt P06239)
Experiment: PubChem AID 1671316
Settings: Z'-LYTE FRET kinase assay, recombinant LCK

Chain of Tyrosine-protein kinase Lck (Homo sapiens) (P06239 whole entry, looked up): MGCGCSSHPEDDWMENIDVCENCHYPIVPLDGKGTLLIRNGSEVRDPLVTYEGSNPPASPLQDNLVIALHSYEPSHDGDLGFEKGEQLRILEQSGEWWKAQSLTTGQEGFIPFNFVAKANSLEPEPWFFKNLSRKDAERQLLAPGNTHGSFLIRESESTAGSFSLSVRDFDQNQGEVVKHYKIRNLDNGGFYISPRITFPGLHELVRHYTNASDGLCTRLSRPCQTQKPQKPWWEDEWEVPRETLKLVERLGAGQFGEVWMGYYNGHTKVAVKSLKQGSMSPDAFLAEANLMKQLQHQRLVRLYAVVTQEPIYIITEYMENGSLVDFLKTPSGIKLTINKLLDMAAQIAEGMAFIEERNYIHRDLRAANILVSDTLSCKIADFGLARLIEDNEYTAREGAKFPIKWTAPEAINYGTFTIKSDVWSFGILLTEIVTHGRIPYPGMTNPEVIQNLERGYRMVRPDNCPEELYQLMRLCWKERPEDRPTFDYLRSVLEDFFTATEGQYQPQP

IC50: 799 nM
SMILES: COc1cc2ncnc(Nc3cccc(Cl)c3)c2cc1OC
